Experimental data from patent US10709702B2, “Treatment of skin disorders by topical administration of VEGF inhibitors” (AMD THERAPEUTICS LLC, priority 2015, dated 2020).

Assay: Skin absorption after topical application to a hand, disappearance of red color
Type: in vivo, human

- Time until absorbed in skin tissue (red color disappeared): 1 to 2 h
Structure (SMILES): CO[C@H]1/C=C/O[C@@]2(C)Oc3c(C)c(O)c4c(O)c(c(/C=N/N5CCN(C)CC5)c(O)c4c3C2=O)NC(=O)/C(C)=C\C=C\[C@H](C)[C@H](O)[C@@H](C)[C@@H](O)[C@@H](C)[C@H](OC(C)=O)[C@@H]1C [rifampicin]
